The results in this text go back to patent US12209102B2, “Heterocyclic compounds and uses thereof” (Kumquat Biosciences Inc., priority 2022, dated 2025).

Some results are limits rather than exact numbers.

One experiment has as its target T1, K-Ras G12V (Homo sapiens, UniProt P01116, G12V).
T1 construct: made in house; host or cells: E. coli BL21 (DE3)
Put plainly: HTRF resonance energy transfer assay, K-Ras G12V / SOS1 interaction. The format is biochemical. The following applies: HTRF assay of Example 5; read-out: IC50 against K-Ras G12V. The method in brief:
(§1)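 Compounds, tested in duplicate at 10 μM down to 0.01 μM, were read after about 10 min or more by HTRF as the 665/620 nm emission ratio (337 nm excitation) to derive IC50. This ratio reports FRET between an anti-GST-Eu donor on GST-K-Ras (wild-type or mutant) and an anti-6His-XL665 acceptor on His-hSOS1. Buffer: ~5 mM HEPES pH 7.4, 150 mM NaCl, 1 mM DTT, 0.05% BSA, 0.0025% Igepal.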
Background: TR-FRET usually uses a lanthanide donor and a delayed reading to cut background.

A further experiment has as its system A549 cells. The experiment in a line: Ras cellular assay, growth of cells with K-Ras G12S mutation (CellTiter-Glo). The format is cell-based. The following applies: Homo sapiens, cell growth, Example 9, G12S mutation, read-out: IC50 against A549 cells. The method in brief:
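Growth inhibition IC50 values come from four-parameter fits of CellTiter-Glo luminescence, read about 6 days after compound addition. G12S-mutant A549 cells (e.g. 800/well, RPMI-1640 + 10% heat-inactivated FBS) were plated in tissue-culture-treated or ultra-low-attachment 384-well format. Dosing began the following day with serial dilutions, e.g. 10 points, 3-fold.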

The test system of a further experiment is SW620 cells. Put plainly: Ras cellular assay, growth of cells with K-Ras G12V mutation (CellTiter-Glo). The format is cell-based. The note with it: Homo sapiens, SW-620; cell growth, Example 9, G12V mutation; read-out: IC50 against SW620 cells. The method in brief: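 IC50 values came from a four-parameter fit of CellTiter-Glo viability, read roughly 6 days after dosing with e.g. a 10-point threefold dilution series. G12V-mutant SW620 cells (e.g. 800 per well) had been plated the previous day in RPMI-1640/10% heat-inactivated FBS, on tissue culture-treated or ultra-low attachment plates.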
A general note: ATP-based viability assays read luminescence as a measure of living cells.

Another experiment addresses T2, K-Ras G12S (Homo sapiens, UniProt P01116, G12S).
T2 construct: made in house; host or cells: E. coli BL21 (DE3)
Put plainly: HTRF resonance energy transfer assay, K-Ras G12S / SOS1 interaction. The format is biochemical. The following applies: HTRF assay of Example 5; read-out: IC50 against K-Ras G12S. The method in brief:
as §1

The target of a further experiment is T3, K-Ras WT (Homo sapiens, UniProt P01116).
T3 construct: made in house; host or cells: E. coli BL21 (DE3)
The experiment in a line: HTRF resonance energy transfer assay, K-Ras WT / SOS1 interaction. The format is biochemical. The note with it: HTRF assay of Example 5; read-out: IC50 against K-Ras WT. The method in brief: as §1

Another experiment has as its target T4, K-Ras G12D (Homo sapiens, UniProt P01116, G12D).
T4 construct: made in house; host or cells: E. coli BL21 (DE3)
The experiment in a line: HTRF resonance energy transfer assay, K-Ras G12D / SOS1 interaction. The format is biochemical. The note with it: HTRF assay of Example 5; read-out: IC50 against K-Ras G12D. The method in brief: as §1

The subject of a further experiment is GP2D cells. Put plainly: Ras cellular assay, growth of cells with K-Ras G12D mutation (CellTiter-Glo). The format is cell-based. The following applies: cell growth, Example 9, G12D mutation, read-out: IC50 against GP2D cells.

T3 sequence (P01116 1-188 isoform P01116-2): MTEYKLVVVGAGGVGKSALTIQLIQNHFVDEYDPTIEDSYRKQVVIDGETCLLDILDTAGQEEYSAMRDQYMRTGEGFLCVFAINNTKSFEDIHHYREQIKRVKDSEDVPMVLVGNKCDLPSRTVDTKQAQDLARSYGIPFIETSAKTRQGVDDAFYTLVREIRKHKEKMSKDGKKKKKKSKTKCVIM
T4 sequence (P01116 1-188 isoform P01116-2 G12D): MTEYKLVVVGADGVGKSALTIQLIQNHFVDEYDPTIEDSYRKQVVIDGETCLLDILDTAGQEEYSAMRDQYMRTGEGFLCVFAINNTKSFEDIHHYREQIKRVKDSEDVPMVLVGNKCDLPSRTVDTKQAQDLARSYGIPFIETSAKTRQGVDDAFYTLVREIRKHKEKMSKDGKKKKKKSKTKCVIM
T2 sequence (P01116 1-188 isoform P01116-2 G12S): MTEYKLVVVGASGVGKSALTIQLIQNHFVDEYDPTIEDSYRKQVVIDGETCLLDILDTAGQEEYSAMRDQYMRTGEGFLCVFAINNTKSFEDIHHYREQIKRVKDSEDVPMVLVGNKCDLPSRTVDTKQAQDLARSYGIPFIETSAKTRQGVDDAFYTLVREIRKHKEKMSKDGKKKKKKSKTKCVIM
T1 sequence (P01116 1-188 isoform P01116-2 G12V): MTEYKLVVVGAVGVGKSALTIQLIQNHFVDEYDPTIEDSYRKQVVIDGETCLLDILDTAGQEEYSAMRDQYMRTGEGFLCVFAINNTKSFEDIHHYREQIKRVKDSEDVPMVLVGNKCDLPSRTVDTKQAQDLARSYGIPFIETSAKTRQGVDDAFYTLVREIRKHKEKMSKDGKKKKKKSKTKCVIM

What is called IC50 is the concentration that gives 50% inhibition. Regarding `N#Cc1c(N)sc2c(F)ccc(-c3c(Cl)c4c5c(nc(OC[C@@]67CCCN6C[C@H](F)C7)nc5c3F)N(C3CCC(F)(F)C3)CCO4)c12` (stereo partly drawn) [Compound 717, 2-amino-4-(8-chloro-4-(3,3-difluorocyclopentyl)-10-fluoro-2-(((2R,7aS)-2-fluorotetrahydro-1H-pyrrolizin-7a(5H)-yl)methoxy)-5,6-dihydro-4H-[1,4]oxazepino[5,6,7-de]quinazolin-9-yl)-7-fluorobenzo[b]thiophene-3-carbonitrile], the IC50 at K-Ras G12V is less than 100 nM; in the experiment with A549 cells, less than 5000 nM; with SW620 cells, less than 5000 nM; on K-Ras G12S, less than 100 nM; at K-Ras WT, less than 100 nM; at K-Ras G12D, less than 100 nM. Also, the half-maximal inhibitory concentration (IC50) in the experiment with GP2D cells was less than 500 nM.

For `N#Cc1c(N)sc2c(F)ccc(-c3c(Cl)c4c5c(nc(OC[C@@]67CCCN6C[C@H](F)C7)nc5c3F)N(C3CCC(C(F)F)C3)CCO4)c12` (stereo partly drawn) [Compound 718, 2-amino-4-(8-chloro-4-(3-(difluoromethyl)cyclopentyl)-10-fluoro-2-(((2R,7aS)-2-fluorotetrahydro-1H-pyrrolizin-7a(5H)-yl)methoxy)-5,6-dihydro-4H-[1,4]oxazepino[5,6,7-de]quinazolin-9-yl)-7-fluorobenzo[b]thiophene-3-carbonitrile], the IC50 on K-Ras G12V was less than 100 nM; with A549 cells, less than 5000 nM; in the experiment on SW620 cells it was less than 5000 nM; on K-Ras G12S, less than 100 nM; on K-Ras WT, less than 100 nM; at K-Ras G12D it was less than 100 nM. In the experiment with GP2D cells, the IC50 is less than 500 nM.

Consider `N#Cc1c(N)sc2c(F)ccc(-c3c(Cl)c4c5c(nc(OC[C@@]67CCCN6C[C@H](F)C7)nc5c3F)N(CC(F)(F)F)CCO4)c12` [Compound 721, 2-amino-4-(8-chloro-10-fluoro-2-(((2R,7aS)-2-fluorotetrahydro-1H-pyrrolizin-7a(5H)-yl)methoxy)-4-(2,2,2-trifluoroethyl)-5,6-dihydro-4H-[1,4]oxazepino[5,6,7-de]quinazolin-9-yl)-7-fluorobenzo[b]thiophene-3-carbonitrile], for which the IC50 was less than 100 nM at K-Ras G12V; less than 5000 nM with A549 cells; less than 5000 nM in the experiment on SW620 cells; less than 100 nM at K-Ras G12S; less than 100 nM on K-Ras WT; less than 100 nM on K-Ras G12D. Moreover, the IC50 with GP2D cells is less than 500 nM.

With `CN(C)C1(CN2CCOc3c(Cl)c(-c4ccc(F)c5sc(N)c(C#N)c45)c(F)c4nc(OC[C@@]56CCCN5C[C@H](F)C6)nc2c34)CC1` [Compound 725, 2-amino-4-(8-chloro-4-((1-(dimethylamino)cyclopropyl)methyl)-10-fluoro-2-(((2R,7aS)-2-fluorotetrahydro-1H-pyrrolizin-7a(5H)-yl)methoxy)-5,6-dihydro-4H-[1,4]oxazepino[5,6,7-de]quinazolin-9-yl)-7-fluorobenzo[b]thiophene-3-carbonitrile], the IC50 on K-Ras G12V is less than 100 nM; in the experiment on A549 cells, less than 5000 nM; in the experiment on SW620 cells, less than 5000 nM; at K-Ras G12S, less than 100 nM; at K-Ras WT, less than 100 nM; at K-Ras G12D it was less than 100 nM. Moreover, the IC50 in the experiment with GP2D cells is less than 500 nM.

For the compound `C=C[C@H]1COc2c(Cl)c(-c3ccc(F)c4sc(N)c(C#N)c34)c(F)c3nc(OC[C@@]45CCCN4C[C@H](F)C5)nc(c23)N1C1CCOC1` (stereo partly drawn) [Compound 726, 2-amino-4-((5S)-8-chloro-10-fluoro-2-(((2R,7aS)-2-fluorotetrahydro-1H-pyrrolizin-7a(5H)-yl)methoxy)-4-(tetrahydrofuran-3-yl)-5-vinyl-5,6-dihydro-4H-[1,4]oxazepino[5,6,7-de]quinazolin-9-yl)-7-fluorobenzo[b]thiophene-3-carbonitrile], the IC50 at K-Ras G12V was less than 100 nM; with A549 cells, less than 5000 nM; in the experiment with SW620 cells it was less than 5000 nM; on K-Ras G12S it was less than 100 nM; at K-Ras WT, less than 100 nM; at K-Ras G12D, less than 100 nM. Also, the IC50 in the experiment on GP2D cells is less than 500 nM.

Take `N#Cc1c(N)sc2c(F)ccc(-c3c(Cl)c4c5c(nc(OC[C@@]67CCCN6C[C@H](F)C7)nc5c3F)N(C3CCN(C(=O)[C@H]5CCOC5)C3)CCO4)c12` (stereo partly drawn) [Compound 736, 2-amino-4-(8-chloro-10-fluoro-2-(((2R,7aS)-2-fluorotetrahydro-1H-pyrrolizin-7a(5H)-yl)methoxy)-4-(1-((S)-tetrahydrofuran-3-carbonyl)pyrrolidin-3-yl)-5,6-dihydro-4H-[1,4]oxazepino[5,6,7-de]quinazolin-9-yl)-7-fluorobenzo[b]thiophene-3-carbonitrile]: the IC50 at K-Ras G12V is less than 100 nM; with A549 cells, less than 5000 nM; with SW620 cells, less than 5000 nM; at K-Ras G12S, less than 100 nM; at K-Ras WT it was less than 100 nM; at K-Ras G12D it was less than 100 nM. For the same compound, the IC50 in the experiment with GP2D cells was less than 500 nM.

With `COC1(C)CC(N2CCOc3c(Cl)c(-c4ccc(F)c5sc(N)c(C#N)c45)c(F)c4nc(OC[C@@]56CCCN5C[C@H](F)C6)nc2c34)C1` (stereo partly drawn) [Compound 737, 2-amino-4-(8-chloro-10-fluoro-2-(((2R,7aS)-2-fluorotetrahydro-1H-pyrrolizin-7a(5H)-yl)methoxy)-4-(3-methoxy-3-methylcyclobutyl)-5,6-dihydro-4H-[1,4]oxazepino[5,6,7-de]quinazolin-9-yl)-7-fluorobenzo[b]thiophene-3-carbonitrile], the IC50 is less than 100 nM at K-Ras G12V; less than 5000 nM in the experiment on A549 cells; less than 5000 nM in the experiment on SW620 cells; less than 100 nM on K-Ras G12S; less than 100 nM on K-Ras WT; less than 100 nM at K-Ras G12D. Further, in the experiment on GP2D cells, the IC50 is less than 500 nM.

Regarding `N#Cc1c(N)sc2c(F)ccc(-c3c(Cl)c4c5c(nc(OC[C@@]67CCCN6C[C@H](F)C7)nc5c3F)N(C3CCC(OC(F)F)C3)CCO4)c12` (stereo partly drawn) [Compound 740, 2-amino-4-(8-chloro-4-(3-(difluoromethoxy)cyclopentyl)-10-fluoro-2-(((2R,7aS)-2-fluorotetrahydro-1H-pyrrolizin-7a(5H)-yl)methoxy)-5,6-dihydro-4H-[1,4]oxazepino[5,6,7-de]quinazolin-9-yl)-7-fluorobenzo[b]thiophene-3-carbonitrile], the IC50 on K-Ras G12V was less than 100 nM; in the experiment on A549 cells, less than 5000 nM; in the experiment with SW620 cells, less than 5000 nM; on K-Ras G12S it was less than 100 nM; at K-Ras WT, less than 100 nM; on K-Ras G12D, less than 100 nM. Moreover, in the experiment on GP2D cells, the IC50 is less than 500 nM.

For `CO[C@@H](C)C(=O)N1CCC(N2CCOc3c(Cl)c(-c4ccc(F)c5sc(N)c(C#N)c45)c(F)c4nc(OC[C@@]56CCCN5C[C@H](F)C6)nc2c34)C1` (stereo partly drawn) [Compound 742, 2-amino-4-(8-chloro-10-fluoro-2-(((2R,7aS)-2-fluorotetrahydro-1H-pyrrolizin-7a(5H)-yl)methoxy)-4-(1-((S)-2-methoxypropanoyl)pyrrolidin-3-yl)-5,6-dihydro-4H-[1,4]oxazepino[5,6,7-de]quinazolin-9-yl)-7-fluorobenzo[b]thiophene-3-carbonitrile], the half-maximal inhibitory concentration (IC50) is less than 100 nM on K-Ras G12V; less than 5000 nM in the experiment on A549 cells; less than 5000 nM with SW620 cells; less than 100 nM on K-Ras G12S; less than 100 nM at K-Ras WT; less than 100 nM at K-Ras G12D. Besides, in the experiment with GP2D cells, the IC50 is less than 500 nM.

Turning to `CC(C)(O)C1COc2c(Cl)c(-c3ccc(F)c4sc(N)c(C#N)c34)c(F)c3nc(OC[C@@]45CCCN4C[C@H](F)C5)nc(c23)N1CC(F)F` (stereo partly drawn) [Compound 755, 2-amino-4-(8-chloro-4-(2,2-difluoroethyl)-10-fluoro-2-(((2R,7aS)-2-fluorotetrahydro-1H-pyrrolizin-7a(5H)-yl)methoxy)-5-(2-hydroxypropan-2-yl)-5,6-dihydro-4H-[1,4]oxazepino[5,6,7-de]quinazolin-9-yl)-7-fluorobenzo[b]thiophene-3-carbonitrile], the IC50 was less than 100 nM at K-Ras G12V; less than 5000 nM in the experiment with A549 cells; less than 5000 nM in the experiment on SW620 cells; less than 100 nM on K-Ras G12S; less than 100 nM at K-Ras WT; less than 100 nM on K-Ras G12D. Also, the IC50 with GP2D cells was less than 500 nM.
